Test: physchem
From the text: The pKa in the context of the process according to the invention is to be understood as meaning the negative decadic logarithm of the first dissociation constant of the carboxylic acid at a temperature of 25 degrees Celsius. […] The pKa of the carboxylic acid may be measured by determining the pH at the half-equivalence point. To this end, an aqueous solution of the carboxylic acid is titrated against sodium hydroxide solution of a defined concentration and in each case the pH of the solution is measured using a calibrated combination pH electrode. […] According to the Henderson-Hasselbalch equation at the half-equivalence point the pKa corresponds to the measured pH because the acid and its corresponding base are present in equal concentration. Carboxylic acids having an insufficient solubility in water are titrated in methanolic solution (pKLy=16.7) or ethanolic solution (pKLy=19.1), wherein pKLy is defined as follows for non-aqueous media.
[formula] […] Chem., 1985, Vol. 57, No. 6, pp. 865-876.

Row | SMILES | pKa
1 | O=C(O)C(=O)O [Oxalic acid] | 1.46
2 | O=C(O)CCCCCC(=O)O [Pimelic acid] | 4.71

Reference: patent US10364323B2, “Method for producing polyether carbonate polyols” (priority 2015, dated 2019)
